In patent publication US20110171134A1, “(6S)-5-METHYLTETRAHYDROFOLIC ACID FOR THERAPY OF TISSUE INJURY” (priority 2008, published 2011):

Columns and labels:
[1] = test system: dorsal root ganglia (DRG) neurons
Experimental: The nerve graft provides a supportive environment for axon growth. Removal of the nerve segment injures the peripheral axons of DRG neurons on one side (the “conditioning” lesion), whereas neurons on the opposite side are unaffected by the peripheral injury (“unconditioned”). At 2 weeks, a fluorescent tracer is injected 1 cm into the graft and is transported to the cell bodies of DRG neurons that are able to extend axons into the graft. The fluorescent tracer is taken up in the regenerated neurons only.
Sixty four adult male Sprague-Dawley rats (200-300 gm) were subjected to surgery under ketamine/xylazine anesthesia, as previously described (FIG. 1.) The cervical cord was exposed through a C3 laminectomy and dural opening. Using a pair of sharp jeweler's forceps, a well-defined 1 mm-deep injury was made in both posterior columns. A sciatic nerve segment harvested from the left hindlimb then was implanted at the injury site using 10-0 nylon sutures in the pia. The other end of the graft was left to lie freely under the skin.
Two weeks later, 5 μl of the retrograde tracer Fluorogold was placed into the nerve graft at a distance of 1 cm from the spinal cord. […] Rather, it is picked up solely by axons that have grown into the graft and is transported retrogradely in these axons.
Twenty four hours later, the animal was deeply anesthetized and perfused through the heart with 4% paraformaldehyde. The L5 dorsal root ganglia (DRG) were removed bilaterally, postfixed, incubated in 30% sucrose overnight, and quick frozen in Histo Prep (TM). Sections were cut at 10 μm with a cryostat, floated on pretreated glass slides, and stored at −80° C.
Animals were treated with intraperitoneal doses of (6S)-5-methyltetrahydrofolic acid ranging from 10 to 800 μg/kg, starting 3 days before the injury and given daily for 2 weeks.
Dorsal root ganglion sections were examined under a fluorescence microscope and the number of fluorescently labeled cells was counted (see FIG. 1.B). The same sections were then counterstained with cresyl violet to reveal the cell somas of all neurons in the DRG. Fluorescently labeled cells and total cells were counted in treated and control animals by an observer unaware of the treatment conditions. The percentage of labeled DRG cells in each animal was calculated. To determine neuronal numbers accurately, the method of Abercombie was used, in which only cells with visible nucleoli are counted.
The Wilcoxon rank-sum test and box-and-whiskers plots were used to compare the different groups.

[2] = test system: dorsal root ganglia (DRG) neurons; conditions: cited from earlier work
[3] = regeneration of axons into peripheral nerve grafts after damage to the spinal cord

| Structure (SMILES) | percentage of conditioned DRG neurons that were fluorescently labeled ([1]; 80 ug/kg daily, 3 days before injury to 2 weeks after, with conditioning peripheral nerve lesion, mean ± SEM, n=13) | mean neurons per ganglion regenerating, treatment combined with peripheral injury ([1]; 80 ug/kg, conditioned DRG) [neurons per ganglion] | spinal regeneration, conditioned animals compared with controls, highest dose ([1]; 800 ug/kg, conditioned) | spinal regeneration, unconditioned group, highest dose ([1]; 800 ug/kg, unconditioned) | regeneration in unconditioned DRG in treated animals (FIG. 2) ([1]; 10-400 g/kg as printed, intraperitoneal daily, all treated groups except 800 ug/kg) | mean labeled neurons per ganglion, unconditioned DRG ([1]; 80 N-g/kg intraperitoneal daily, from 3 days before injury for 2 weeks, absence of peripheral nerve injury, n=13) | percentage of labeled unconditioned DRG neurons ([1]; 80 N-g/kg intraperitoneal daily, absence of peripheral nerve injury, mean ± SEM, n=13) | regeneration of conditioned DRG at doses higher or lower than 80 ug/kg ([1]; conditioned, compared with the 80 ug/kg dose) | axons per ganglion regenerating, treatment without peripheral nerve injury ([1]; optimal dose of 80 ug/kg, unconditioned) | increase in regenerative efficacy [1, 3] [%] | regeneration observed with folic acid ([2]; mean ± SEM, n=15, Iskandar, Ann Neurol. 2004) | increase in regenerative efficacy (folic acid comparison) [2, 3] |
| --- | --- | --- | --- | --- | --- | --- | --- | --- | --- | --- | --- | --- |
| CN1c2c(nc(N)[nH]c2=O)NC[C@@H]1CNc1ccc(C(=O)N[C@@H](CCC(=O)O)C(=O)O)cc1 [(6S)-5-methyltetrahydrofolic acid] | 30.68%±2.97 | 980 | decreased regeneration | no evidence of spinal regeneration | Measurable regeneration | 320 labeled neurons per ganglion | 10.25%±2.30 | less effective | approximately 319 axons per ganglion | ≥ 30 |  |  |
| Nc1nc2ncc(CNc3ccc(C(=O)N[C@@H](CCC(=O)O)C(=O)O)cc3)nc2c(=O)[nH]1 [folic acid] |  |  |  |  |  |  |  |  |  |  | 16.26%±1.12 | approximately 16% |
